In paper PMC11887385 (Virology Journal, 2025):

How the values were obtained:
[1] = test system: HIV-1NL4-3; assay: Antiviral activity, TZM-bl reporter cells, F-Luc; format: cell-based
[2] = test system: HIV-1JRCSF; assay: Antiviral activity, TZM-bl reporter cells, F-Luc; format: cell-based; conditions: Human immunodeficiency virus 1, TZM-bl, read-out: EC50 (1:5 dilution)
[3] = test system: HIV-1 89.6; assay: Antiviral activity, TZM-bl reporter cells, F-Luc; format: cell-based; conditions: Human immunodeficiency virus 1, TZM-bl, read-out: EC50 (1:5 dilution)
[4] = test system: HIV-1NL4-3; assay: Viral replication in A3.01 T cells, p24 […]; format: cell-based; conditions: Human immunodeficiency virus 1, NL43, T-cell, read-out: EC50 (1:5 dilution)
[5] = test system: HIV-1NL4-3; assay: Viral replication in PBMCs, p24 […]; format: cell-based; conditions: Human immunodeficiency virus 1, NL43, PBMC, read-out: EC50 (1:5 dilution)
[6] = test system: HIV-1JRCSF; assay: Viral replication in PBMCs, p24 […]; format: cell-based; conditions: Human immunodeficiency virus 1, PBMC, read-out: EC50 (1:5 dilution)
[7] = Cell viability test; format: cell-based; conditions: human, TZM-bl cells, CC50 (1:5 dilution)
[8] = test system: TZM-bl cells; assay: Cell viability test; format: cell-based; conditions: 48 h
[9] = Cell viability test; format: cell-based, human; conditions: human, A3.01 cells
[10] = test system: A3.01 cells; assay: Cell viability test; format: cell-based, human; conditions: A3.01
[11] = Cell viability test; format: cell-based; conditions: human, PBMCs
[12] = test system: PBMCs; assay: Cell viability test; format: cell-based
[13] = test system: HIV-1NL4-3-IRES-GFP proviral DNA; format: cell-based; conditions: HEK293T, 48 h
[14] = target: recombinant HIV-1 RTase (Human immunodeficiency virus type 1 group M subtype B, UniProt P04585); assay: In vitro RTase assay; format: biochemical; conditions: IC50 against RTase, 0.5 unit RTase, 1 h, 24 °C
[15] = target: HIV-1 integrase (Human immunodeficiency virus type 1 group M subtype B, UniProt P04585); assay: HIV-1 integrase assay kit; format: biochemical; conditions: 10 µM
[16] = test system: HIV-1NL4-3; assay: Time-of-addition; format: cell-based; conditions: TZM-bl, MOI 0.5, read at 48 h
[17] = test system: HIV-1NL4-3 early and late RT products; assay: HIV-1 reverse transcripts in infected A3.01 cells, RT-qPCR; format: cell-based; conditions: A3.01, 1 μM, 6 h
[18] = test system: HIV-1NL4-3 integrated proviral DNA; assay: Integrated proviral DNA in infected A3.01 cells, Alu-PCR; format: cell-based; conditions: A3.01, 1 μM
[19] = test system: Tat-mediated viral transcription of LTR; assay: Tat-mediated LTR transcription in bl-DTR cells; format: cell-based, HIV-1; conditions: doxycycline, 24 h
[20] = test system: HIV-1 7406 (190C; 41L/69S*/74 V/184 V/210W/215Y); assay: Antiviral activity on resistant variant, TZM-bl F-Luc; format: cell-based; conditions: Human immunodeficiency virus 1, TZM-bl
[21] = test system: HIV-1 7407 (103N; 70R/115F); assay: as above; format: cell-based; conditions: Human immunodeficiency virus 1, TZM-bl
[22] = test system: HIV-1 12,227 (101P/103N; 41L/215Y); assay: as above; format: cell-based; conditions: Human immunodeficiency virus 1, TZM-bl
[23] = test system: HIV-1 12,231 (103N/179F/181C; 41L/215F); assay: as above; format: cell-based; conditions: Human immunodeficiency virus 1, TZM-bl
[24] = test system: HIV-1 12,241 (101E/138G/190S); assay: as above; format: cell-based; conditions: Human immunodeficiency virus 1, TZM-bl
[25] = test system: HIV-1 12,243 (100I/179D/230L; 41L/67G/74I); assay: as above; format: cell-based; conditions: Human immunodeficiency virus 1, TZM-bl
[26] = test system: HIV-1 L100I; assay: Antiviral activity on single RT mutant, TZM-bl F-Luc; format: cell-based; conditions: Human immunodeficiency virus 1, TZM-bl
[27] = test system: HIV-1 K101P; assay: as above; format: cell-based; conditions: Human immunodeficiency virus 1, TZM-bl
[28] = test system: HIV-1 K103N; assay: as above; format: cell-based; conditions: Human immunodeficiency virus 1, TZM-bl
[29] = test system: HIV-1 G190A; assay: as above; format: cell-based; conditions: Human immunodeficiency virus 1, TZM-bl
[30] = test system: HIV-1 G190C; assay: as above; format: cell-based; conditions: Human immunodeficiency virus 1, TZM-bl
[31] = test system: HIV-1 G190S; assay: as above; format: cell-based; conditions: Human immunodeficiency virus 1, TZM-bl
[32] = test system: HIV-1 7396 (41L/67N/69N/70R/215F); assay: Antiviral activity on resistant variant, TZM-bl F-Luc; format: cell-based; conditions: Human immunodeficiency virus 1, TZM-bl
[33] = Human immunodeficiency virus 1, TZM-bl
[34] = Human immunodeficiency virus 1, TZM-bl, 48 h
[35] = Human immunodeficiency virus 1, NL43, TZM-bl, read-out: EC50 (1:5 dilution)

Cc1nn(C(C)c2nnc(Nc3ccn(Cc4ccccc4)n3)s2)c(C)c1Br (centres unmarked) [BPPT, N-(1-benzyl-1H-pyrazol-3-yl)-5-[1-(4-bromo-3,5-dimethyl-1H-pyrazol-1-yl)ethyl]-1,3,4-thiadiazol-2-amine]
EC50 [1, 33]: 60 nM
EC50 [2]: 160 ± 10 nM
EC50 [3]: 90 nM
EC50 [4]: 160 ± 20 nM
EC50 [5]: 80 ± 10 nM
EC50 [6]: 40 ± 30 nM
CC50 [7]: > 50000 nM
no (severe) cytotoxicity up to [8]: > 250 µM
CC50 [9]: > 50000 nM
no cytotoxicity up to [10]: > 50 µM
CC50 [11]: > 50000 nM
no cytotoxicity up to [12]: > 50 µM
GFP signal and level of p24 in the supernatant from transfected cells [13]: not inhibited
IC50 [14]: 140 nM
integrase activity [15]: did not affect
time postinfection of addition at which the inhibitory effect disappeared [16]: 6 h
synthesis of viral cDNA, early and late stages of RT [17]: greatly inhibited
integrated proviral DNA [18]: low level of integrated proviral DNA
Tat-mediated viral transcription of LTR [19]: did not inhibit
EC50 [20]: 350 ± 40 nM
EC50 [21]: 19700 ± 1600 nM
EC50 [22]: > 50000 nM
EC50 [23]: > 50000 nM
EC50 [24]: 4570 ± 2300 nM
EC50 [25]: > 50000 nM
EC50 [26]: 3500 ± 650 nM
EC50 [27]: 1710 ± 30 nM
EC50 [28]: 880 ± 120 nM
EC50 [29]: 70 nM
EC50 [30]: 290 ± 30 nM
EC50 [31]: 280 ± 50 nM

Cc1cn([C@H]2C[C@H](N=[N+]=[N-])[C@@H](CO)O2)c(=O)[nH]c1=O [AZT, zidovudine]
EC50 [1, 34]: 290 ± 60 nM
time postinfection of addition at which the inhibitory effect disappeared [16]: 2 h
EC50 [32]: 3830 ± 1210 nM
EC50 [20]: 15100 ± 2160 nM
EC50 [21]: > 50000 nM
EC50 [22]: 1000 ± 130 nM
EC50 [23]: 630 ± 190 nM
EC50 [24]: 80 ± 30 nM
EC50 [25]: 290 ± 10 nM
EC50 [26]: 70 ± 10 nM
EC50 [27]: 40 nM
EC50 [28]: 110 ± 10 nM
EC50 [29]: 110 ± 10 nM
EC50 [30]: 50 ± 10 nM
EC50 [31]: 80 ± 10 nM

Enfuvirtide [T20]
time postinfection of addition at which the inhibitory effect disappeared [16]: 1 h

Cc1nnc(C(=O)NC(C)(C)c2nc(C(=O)NCc3ccc(F)cc3)c(O)c(=O)n2C)o1 [RAL, raltegravir]
time postinfection of addition at which the inhibitory effect disappeared [16]: 8 h

O=C(Nc1ccc(S(=O)(=O)O)c2ccccc12)c1ccc(=O)oc1 [compound 1, 4-(2-oxo-2H-pyran-5-carboxamido)naphthalene-1-sulfonic acid]
EC50 [1, 34]: 8480 nM

O=C1Nc2ccc(Cl)cc2[C@@](C#CC2CC2)(C(F)(F)F)O1 [EFV, efavirenz]
EC50 [1, 35]: 1 nM
EC50 [1, 34]: 1 nM
CC50 [7]: 25900 nM
EC50 [32]: 1 nM
EC50 [21]: 350 ± 30 nM
EC50 [23]: 180 ± 220 nM
EC50 [26]: 20 nM
EC50 [27]: 20 nM
EC50 [28]: 40 ± 10 nM
EC50 [29]: 10 nM
EC50 [30]: 390 ± 90 nM
EC50 [31]: 120 ± 10 nM

CCc1cc(=O)oc2cc(OC(CC)C(=O)c3ccccc3)ccc12 (centres unmarked) [compound 2, 4-ethyl-7-((1-oxo-1-phenylbutan-2-yl)oxy)-2H-chromen-2-one]
EC50 [1, 34]: 4890 nM

CC(C)[C@]12O[C@H]1[C@@H]1O[C@]13[C@]1(O[C@H]1C[C@H]1C4=C(CC[C@@]13C)C(=O)OC4)[C@@H]2O [TPL, triptolide]
time postinfection of addition at which the inhibitory effect disappeared [16]: 24 h

COc1cccc(C=NNC(=S)NN)c1OC [compound 4, 1-amino-3-[(2,3-dimethoxyphenyl)methylideneamino]thiourea]
EC50 [1, 34]: 6390 nM

C[C@@H]1CCO[C@H]2Cn3cc(C(=O)NCc4ccc(F)cc4F)c(=O)c(O)c3C(=O)N12 [DTG, Dolutegravir]
time postinfection of addition at which the inhibitory effect disappeared [16]: 8 h

CC(C)(C)c1cc([N+](=O)[O-])cc(C=O)c1O [compound 3, 3-tert-butyl-2-hydroxy-5-nitrobenzaldehyde]
EC50 [1, 34]: 1470 nM

Cc1cc(/C=C/C#N)cc(C)c1Nc1ccnc(Nc2ccc(C#N)cc2)n1 [RPV, rilpivirine]
EC50 [1, 33]: 0.7 nM

Cc1ccnc2c1NC(=O)c1cccnc1N2C1CC1 [NVP, nevirapine]
EC50 [1, 35]: 80 ± 180 nM
EC50 [1, 34]: 80 ± 20 nM
CC50 [7]: > 50000 nM
EC50 [32]: 350 ± 70 nM
EC50 [20]: > 50000 nM
EC50 [21]: > 50000 nM
EC50 [22]: > 50000 nM
EC50 [23]: > 50000 nM
EC50 [24]: > 50000 nM
EC50 [25]: 21400 ± 2210 nM
EC50 [26]: 180 ± 40 nM
EC50 [27]: 8310 ± 600 nM
EC50 [28]: 4550 ± 270 nM
EC50 [29]: 15700 ± 2730 nM
EC50 [30]: 23800 ± 3310 nM
EC50 [31]: 32700 ± 4490 nM
